Laboratory results reported in patent publication US12502362B2, “Inhibitors of nucleotidyltransferase superfamily enzymes as antibiotics” (priority 2017, dated 2025).
Read-outs that look alike come from different tables or passages of the source.

Experiments:
Staphylococcus hominis = assay type: cell-based
Procedure: (§1) It was also tested whether compounds #63 and #285 can inhibit other coagulase-negative Staphylococcus (CNS) including S. epidermidis, S. hominis, etc. […].

[1] = system: Staphylococcus epidermidis; assay type: cell-based
Procedure: as §1

[2] = system: Coagulase negative Staphylococcus; assay: Antibiotic susceptibility of coagulase negative Staphylococcus strains; assay type: cell-based
[3] = system: S. aureus ATCC strains and MRSA; assay type: cell-based, Staphylococcus aureus
[4] = Se1 (Staphylococcus epidermidis)
[5] = Se2 (Staphylococcus epidermidis)
[6] = Se3 (Staphylococcus epidermidis)
[7] = Se4 (Staphylococcus epidermidis)
[8] = Se5 (Staphylococcus epidermidis)
[9] = CNS1 (Coagulase negative Staphylococcus)
[10] = CNS2 (Coagulase negative Staphylococcus)

Compound	Antibiotic susceptibility [2, 9]	Antibiotic susceptibility [2, 10]	Antibiotic susceptibility ([3]; S. aureus ATCC 25923)	Antibiotic susceptibility ([3]; S. aureus ATCC 29213)	Antibiotic susceptibility ([3]; S. aureus ATCC BAA 976)	Antibiotic susceptibility ([3]; S. aureus ATCC BAA 977)	Antibiotic susceptibility ([3]; S. aureus ATCC BAA 1026)	Antibiotic susceptibility ([3]; Sa1 (MRSA))	Antibiotic susceptibility ([3]; Sa2 (MRSA))	Antibiotic susceptibility ([3]; Sa3 (MRSA))	Antibiotic susceptibility ([3]; Sa6 (MRSA))	Antibiotic susceptibility ([3]; Sa7 (MRSA))	Antibiotic susceptibility ([3]; Sa9 (MRSA))	Antibiotic susceptibility ([3]; Sa11 (MRSA))	Antibiotic susceptibility ([3]; Sa12 (MRSA))	Antibiotic susceptibility ([3]; Sa14 (MRSA))	Antibiotic susceptibility ([3]; Sa15 (MRSA))	Antibiotic susceptibility ([3]; Sa16 (MRSA))	Antibiotic susceptibility ([3]; Sa17 (MRSA))	Antibiotic susceptibility ([3]; Sa18 (MRSA))	other results
CC(=O)NC[C@H]1CN(c2ccc(N3CCOCC3)c(F)c2)C(=O)O1 [LZD, linezolid]	S	S	S	S	S	S	S	S	S	S	S	S	S	S	S	S	S	S	S	S	Antibiotic susceptibility (Staphylococcus hominis; Sh1 (Staphylococcus hominis)): S; Antibiotic susceptibility (Staphylococcus hominis; Sh2 (Staphylococcus hominis)): S; Antibiotic susceptibility (Staphylococcus hominis; Sh3 (Staphylococcus hominis)): S; Antibiotic susceptibility [1, 4]: S; Antibiotic susceptibility [1, 5]: S; Antibiotic susceptibility [1, 6]: S; Antibiotic susceptibility [1, 7]: S; Antibiotic susceptibility [1, 8]: S; Antibiotic susceptibility ([3]; Sa5 (MRSA)): S; Antibiotic susceptibility ([3]; Sa8 (MRSA)): S; Antibiotic susceptibility ([3]; Sa10 (MRSA)): S; Antibiotic susceptibility ([3]; Sa19 (MRSA)): S; Antibiotic susceptibility ([3]; Sa20 (MRSA)): S; Antibiotic susceptibility ([3]; Sa21 (MRSA)): S; Antibiotic susceptibility ([3]; Sa22 (MRSA)): S; Antibiotic susceptibility ([3]; Sa23 (MRSA)): S
COc1c(N2C[C@@H]3CCCN[C@@H]3C2)c(F)cc2c(=O)c(C(=O)O)cn(C3CC3)c12 [MXF, moxifloxacin]	S	R	S	S	S	S	I	R	I	I	R	S	R	R	I	I	R	I	R	I	Antibiotic susceptibility (Staphylococcus hominis; Sh1 (Staphylococcus hominis)): R; Antibiotic susceptibility (Staphylococcus hominis; Sh2 (Staphylococcus hominis)): S; Antibiotic susceptibility (Staphylococcus hominis; Sh3 (Staphylococcus hominis)): S; Antibiotic susceptibility [1, 4]: R; Antibiotic susceptibility [1, 5]: S; Antibiotic susceptibility [1, 6]: R; Antibiotic susceptibility [1, 7]: R; Antibiotic susceptibility [1, 8]: R; Antibiotic susceptibility ([3]; Sa5 (MRSA)): R; Antibiotic susceptibility ([3]; Sa8 (MRSA)): R; Antibiotic susceptibility ([3]; Sa10 (MRSA)): R; Antibiotic susceptibility ([3]; Sa19 (MRSA)): S; Antibiotic susceptibility ([3]; Sa20 (MRSA)): I; Antibiotic susceptibility ([3]; Sa21 (MRSA)): S; Antibiotic susceptibility ([3]; Sa22 (MRSA)): S; Antibiotic susceptibility ([3]; Sa23 (MRSA)): S
Cc1onc(-c2ccccc2)c1C(=O)N[C@@H]1C(=O)N2[C@@H]1SC(C)(C)[C@@H]2C(=O)O [OXA, Oxacillin]	R	R	S	S	R	S	R	R	R	R	R	R	R	R	R	R	R	R	R	R	Antibiotic susceptibility (Staphylococcus hominis; Sh1 (Staphylococcus hominis)): R; Antibiotic susceptibility (Staphylococcus hominis; Sh2 (Staphylococcus hominis)): R; Antibiotic susceptibility (Staphylococcus hominis; Sh3 (Staphylococcus hominis)): R; Antibiotic susceptibility [1, 4]: R; Antibiotic susceptibility [1, 5]: R; Antibiotic susceptibility [1, 6]: R; Antibiotic susceptibility [1, 7]: R; Antibiotic susceptibility [1, 8]: R; Antibiotic susceptibility ([3]; Sa5 (MRSA)): R; Antibiotic susceptibility ([3]; Sa8 (MRSA)): R; Antibiotic susceptibility ([3]; Sa10 (MRSA)): R; Antibiotic susceptibility ([3]; Sa19 (MRSA)): R; Antibiotic susceptibility ([3]; Sa20 (MRSA)): R; Antibiotic susceptibility ([3]; Sa21 (MRSA)): R; Antibiotic susceptibility ([3]; Sa22 (MRSA)): R; Antibiotic susceptibility ([3]; Sa23 (MRSA)): R
CO[C@H]1/C=C/O[C@@]2(C)Oc3c(C)c(O)c4c(O)c(c(/C=N/N5CCN(C)CC5)c(O)c4c3C2=O)NC(=O)/C(C)=C\C=C\[C@H](C)[C@H](O)[C@@H](C)[C@@H](O)[C@@H](C)[C@H](OC(C)=O)[C@@H]1C [RIF, Rifampin]	S	S	S	S	S	S	S	S	S	S	S	S	S	S	S	S	R	S	S	S	Antibiotic susceptibility (Staphylococcus hominis): S; Antibiotic susceptibility [1]: S; Antibiotic susceptibility ([3]; Sa19 (MRSA)): S; Antibiotic susceptibility ([3]; Sa20 (MRSA)): S; Antibiotic susceptibility ([3]; Sa21 (MRSA)): S; Antibiotic susceptibility ([3]; Sa22 (MRSA)): S; Antibiotic susceptibility ([3]; Sa23 (MRSA)): S; MRSA strains resistant ([3]; number of resistant strains out of 21 MRSA strains): 1/21
CN(C)[C@@H]1C(O)=C(C(N)=O)C(=O)[C@@]2(O)C(O)=C3C(=O)c4c(O)cccc4[C@@](C)(O)[C@H]3C[C@@H]12 [TET, Tetracycline]	S	S	S	S	S	S	S	S	S	S	S	S	S	S	S	S	S	S	S	S	Antibiotic susceptibility (Staphylococcus hominis; Sh1 (Staphylococcus hominis)): R; Antibiotic susceptibility (Staphylococcus hominis; Sh2 (Staphylococcus hominis)): R; Antibiotic susceptibility (Staphylococcus hominis; Sh3 (Staphylococcus hominis)): S; Antibiotic susceptibility [1, 4]: S; Antibiotic susceptibility [1, 5]: S; Antibiotic susceptibility [1, 6]: S; Antibiotic susceptibility [1, 7]: S; Antibiotic susceptibility [1, 8]: S; Antibiotic susceptibility ([3]; Sa5 (MRSA)): S; Antibiotic susceptibility ([3]; Sa19 (MRSA)): S; Antibiotic susceptibility ([3]; Sa20 (MRSA)): S; Antibiotic susceptibility ([3]; Sa21 (MRSA)): S; Antibiotic susceptibility ([3]; Sa22 (MRSA)): S; Antibiotic susceptibility ([3]; Sa23 (MRSA)): S
CN(C)c1cc(NC(=O)CNC(C)(C)C)c(O)c2c1C[C@H]1C[C@H]3[C@H](N(C)C)C(O)=C(C(N)=O)C(=O)[C@@]3(O)C(O)=C1C2=O [TGC, Tigecycline]	S	S	S	S	S	S	S	S	S	S	S	S	S	S	S	S	S	S	S	S	Antibiotic susceptibility (Staphylococcus hominis; Sh1 (Staphylococcus hominis)): S; Antibiotic susceptibility (Staphylococcus hominis; Sh2 (Staphylococcus hominis)): S; Antibiotic susceptibility (Staphylococcus hominis; Sh3 (Staphylococcus hominis)): S; Antibiotic susceptibility [1, 4]: S; Antibiotic susceptibility [1, 5]: S; Antibiotic susceptibility [1, 6]: S; Antibiotic susceptibility [1, 7]: S; Antibiotic susceptibility [1, 8]: S; Antibiotic susceptibility ([3]; Sa19 (MRSA)): S; Antibiotic susceptibility ([3]; Sa20 (MRSA)): S; Antibiotic susceptibility ([3]; Sa21 (MRSA)): S; Antibiotic susceptibility ([3]; Sa22 (MRSA)): S; Antibiotic susceptibility ([3]; Sa23 (MRSA)): S
